Source: publication PMC6820788, “Structural insights of human mitofusin-2 into mitochondrial fusion and CMT2A onset” (Nature Communications, 2019)
Residue numbers refer to the chain shown, from its start. Names may count otherwise. One block for each molecule: values may come before it.

Key:
MFN2IM [1] = molecular target: T1, MFN2IM (Homo sapiens, UniProt O95140, DEL401-705); assay: stopped-flow fluorescence, nucleotide exchange; type: binding; conditions: labelled compound; protein preincubated with GDP; pH 7.5, 150 mM KCl, 5 mM MgCl2
T1 construct: gene MFN2; deletion of residues 1-21 and 401-705 (G domain + HD1); E. coli; N-terminal His6 cut by PreScission
T1 sequence (O95140 22-400): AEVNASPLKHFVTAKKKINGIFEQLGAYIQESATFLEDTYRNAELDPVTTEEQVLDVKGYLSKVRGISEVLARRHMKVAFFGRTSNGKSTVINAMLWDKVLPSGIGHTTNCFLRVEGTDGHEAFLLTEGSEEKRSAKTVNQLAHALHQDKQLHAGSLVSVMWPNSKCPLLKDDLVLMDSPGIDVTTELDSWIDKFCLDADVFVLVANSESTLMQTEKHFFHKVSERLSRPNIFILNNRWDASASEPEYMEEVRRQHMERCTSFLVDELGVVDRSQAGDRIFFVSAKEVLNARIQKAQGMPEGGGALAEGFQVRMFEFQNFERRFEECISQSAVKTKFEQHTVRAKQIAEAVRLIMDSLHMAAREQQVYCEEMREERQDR
T1 sequence (O95140 706-757): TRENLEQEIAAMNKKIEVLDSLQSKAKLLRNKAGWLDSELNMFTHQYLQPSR

MFN1IM [2] = molecular target: T2, MFN1IM (Homo sapiens, UniProt Q8IWA4, DEL365-694); assay: stopped-flow fluorescence, nucleotide exchange; type: binding; conditions: labelled compound; protein preincubated with GDP; pH 7.5, 150 mM KCl, 5 mM MgCl2
T2 construct: gene MFN1; internally truncated (residues 365-694 removed, G domain + HD1); E. coli; His6 cut by PreScission
T2 sequence (Q8IWA4 1-364): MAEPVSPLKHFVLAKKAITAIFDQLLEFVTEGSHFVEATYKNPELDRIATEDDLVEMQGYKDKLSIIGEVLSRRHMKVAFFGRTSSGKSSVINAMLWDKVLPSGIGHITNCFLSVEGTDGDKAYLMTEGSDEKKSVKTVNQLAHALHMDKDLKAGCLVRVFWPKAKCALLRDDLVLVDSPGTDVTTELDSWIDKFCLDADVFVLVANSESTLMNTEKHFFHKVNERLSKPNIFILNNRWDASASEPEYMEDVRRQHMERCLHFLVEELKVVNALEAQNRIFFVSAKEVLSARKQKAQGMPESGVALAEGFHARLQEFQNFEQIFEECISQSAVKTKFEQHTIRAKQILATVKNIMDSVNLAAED
T2 sequence (Q8IWA4 695-741): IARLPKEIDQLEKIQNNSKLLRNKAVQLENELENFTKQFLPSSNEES

MFN2IM [3] = molecular target: T1, MFN2IM; assay: ITC; type: binding
MFN1IM [4] = molecular target: T2, MFN1IM; assay: ITC; type: binding
MFN2IM [5] = molecular target: T3, MFN2IM (Homo sapiens, UniProt O95140, T129I/DEL401-705); assay: stopped-flow fluorescence, displacement by unlabeled GDP; type: binding; conditions: labelled compound; pH 7.5, 150 mM KCl, 5 mM MgCl2
T3 construct: gene MFN2; deletion of residues 1-21 and 401-705 (G domain + HD1); E. coli; N-terminal His6 cut by PreScission
T3 sequence (O95140 22-400 T129I): T1 sequence (O95140 22-400) with T108I
T3 sequence (O95140 706-757): T1 sequence (O95140 706-757)

MFN1IM [6] = molecular target: T4, MFN1IM (Homo sapiens, UniProt Q8IWA4, I108T/DEL365-694); assay: as above; type: binding; conditions: labelled compound; pH 7.5, 150 mM KCl, 5 mM MgCl2
T4 construct: gene MFN1; internally truncated (residues 365-694 removed, G domain + HD1); E. coli; His6 cut by PreScission
T4 sequence (Q8IWA4 1-364 I108T): T2 sequence (Q8IWA4 1-364) with I108T
T4 sequence (Q8IWA4 695-741): T2 sequence (Q8IWA4 695-741)

mouse MFN2IM (mm) = molecular target: T5, mouse MFN2IM (mm) (Mus musculus, UniProt Q80U63); assay: GTP hydrolysis, HPLC; type: biochemical; conditions: 37 °C, pH 7.5, 150 mM KCl, 5 mM MgCl2
T5 construct: gene Mfn2; internally truncated counterpart of human MFN2IM
T5 sequence (Q80U63 22-400 limits assumed): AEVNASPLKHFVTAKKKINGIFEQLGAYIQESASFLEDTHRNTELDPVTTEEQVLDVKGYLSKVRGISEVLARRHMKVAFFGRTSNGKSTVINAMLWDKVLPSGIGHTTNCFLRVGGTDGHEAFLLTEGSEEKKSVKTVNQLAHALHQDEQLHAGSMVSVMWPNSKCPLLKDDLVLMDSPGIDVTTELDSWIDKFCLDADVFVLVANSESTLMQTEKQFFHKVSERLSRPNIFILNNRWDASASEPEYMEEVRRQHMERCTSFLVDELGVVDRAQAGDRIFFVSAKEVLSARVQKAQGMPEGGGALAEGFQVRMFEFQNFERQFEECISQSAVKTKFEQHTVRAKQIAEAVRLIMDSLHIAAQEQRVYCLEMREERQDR
T5 sequence (Q80U63 706-757 limits assumed): T1 sequence (O95140 706-757) with E3D, I16V, V18A, K25R

mouse MFN1IM (mm) = molecular target: T6, mouse MFN1IM (mm) (Mus musculus, UniProt Q811U4); assay: GTP hydrolysis, HPLC; type: biochemical; conditions: 37 °C, pH 7.5, 150 mM KCl, 5 mM MgCl2
T6 construct: gene Mfn1; internally truncated counterpart of human MFN1IM
T6 sequence (Q811U4 1-364 limits assumed): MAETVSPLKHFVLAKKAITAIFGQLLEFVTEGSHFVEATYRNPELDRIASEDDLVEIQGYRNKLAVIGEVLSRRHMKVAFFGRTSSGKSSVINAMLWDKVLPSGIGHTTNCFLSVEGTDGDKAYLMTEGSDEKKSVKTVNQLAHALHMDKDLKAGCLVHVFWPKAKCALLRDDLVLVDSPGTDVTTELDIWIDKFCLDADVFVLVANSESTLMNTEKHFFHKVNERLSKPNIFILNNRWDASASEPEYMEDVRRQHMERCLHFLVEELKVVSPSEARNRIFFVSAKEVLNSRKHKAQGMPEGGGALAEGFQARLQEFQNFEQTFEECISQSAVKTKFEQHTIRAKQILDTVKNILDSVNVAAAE
T6 sequence (Q811U4 695-741 limits assumed): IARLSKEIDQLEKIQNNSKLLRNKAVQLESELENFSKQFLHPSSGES

[7] = molecular target: the molecule itself; assay: SEC-RALS; analytical gel filtration (Superdex 200 10/300) coupled to right-angle light scattering; 50 μM protein incubated with 500 μM GTP or GDP∙BeF3− for 2 h at room temperature; 20 mM HEPES pH 7.5, 150 mM KCl, 5 mM MgCl2, 1 mM DTT
MBP-fused MFN2IM = molecular target: T7, MBP-fused MFN2IM (human, UniProt O95140 22-757, deletions of residues 1–21 and 401–705); assay: native gel or EMSA; blue native PAGE at 4 °C; MBP-tagged MFN1IM/MFN2IM mixed with 10 μM partner and tenfold GDP∙BeF3−, 2 h at room temperature; Coomassie stain; conditions: both partners purified
T7 construct: human mitofusin-2 (MFN2) with residues 1-21 and 401-705 deleted (MFN2IM); also called MBP-tagged MFN2IM; wild-type MFN2IM (native PAGE)
T7 sequence (looked up): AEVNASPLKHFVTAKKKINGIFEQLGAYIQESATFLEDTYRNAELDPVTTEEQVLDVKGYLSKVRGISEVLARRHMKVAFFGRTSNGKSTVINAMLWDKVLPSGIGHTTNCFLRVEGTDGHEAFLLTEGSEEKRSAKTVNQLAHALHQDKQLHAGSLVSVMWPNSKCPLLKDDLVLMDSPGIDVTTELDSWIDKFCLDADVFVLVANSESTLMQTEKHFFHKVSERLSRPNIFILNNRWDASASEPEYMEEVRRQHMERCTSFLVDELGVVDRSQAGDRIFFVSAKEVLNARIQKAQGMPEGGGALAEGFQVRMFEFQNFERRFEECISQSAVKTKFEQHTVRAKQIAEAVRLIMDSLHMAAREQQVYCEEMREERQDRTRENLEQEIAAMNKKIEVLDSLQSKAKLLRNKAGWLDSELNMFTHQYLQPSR

Molecule: CNc1ccccc1C(=O)O[C@H]1[C@@H](O)[C@H](n2cnc3c(=O)[nH]c(N)nc32)O[C@@H]1COP(=O)(O)OP(=O)(O)OP(=O)(O)O [mant-GTP]
stopped-flow fluorescence, nucleotide exchange (MFN2IM [1]): MFN2IM bound more mant-GTP over time due to a higher affinity to GTP
stopped-flow fluorescence, nucleotide exchange (MFN1IM [2]): G domain dimerization greatly reduced the mant-GTP reload rate of both MFN2IM and MFN1IM

Kd (MFN2IM [3]): 3.3 ± 0.52 µM
Kd (MFN1IM [4]): 83 ± 5.34 µM
Molecule: Nc1nc2c(ncn2[C@@H]2O[C@H](COP(=O)(O)OP(=O)(O)OP(O)(O)=S)[C@@H](O)[C@H]2O)c(=O)[nH]1 [GTPγS]

Molecule: CNc1ccccc1C(=O)O[C@H]1[C@@H](O)[C@H](n2cnc3c(=O)[nH]c(N)nc32)O[C@@H]1COP(=O)(O)OP(=O)(O)O [mant-GDP]
GDP off-rate (MFN2IM [5]): GDP off-rates of MFN2IM(T129I) and MFN1IM(I108T)
GDP off-rate (MFN1IM [6]): GDP off-rates of MFN2IM(T129I) and MFN1IM(I108T)

Molecule: Nc1nc2c(ncn2[C@@H]2O[C@H](COP(=O)(O)OP(=O)(O)OP(=O)(O)O)[C@@H](O)[C@H]2O)c(=O)[nH]1 [GTP]
GTP turnover rate (mouse MFN2IM (mm)): Mouse MFN1IM and MFN2IM showed weak GTPase hydrolysis
GTP turnover rate (mouse MFN1IM (mm)): Mouse MFN1IM and MFN2IM showed weak GTPase hydrolysis

Kd (MFN2IM [3]): 14.4 ± 0.63 µM
Kd (MFN1IM [4]): 217 ± 23.8 µM
Molecule: Nc1nc2c(ncn2[C@@H]2O[C@H](COP(=O)(O)OP(=O)(O)O)[C@@H](O)[C@H]2O)c(=O)[nH]1 [GDP]

B1: MFN2IM (modified human MFN2 construct with deletions of residues 1–21 and 401–705) (domain or fragment, UniProt O95140 22-757, looked up)
chain: T7 sequence (looked up)
notes: human mitofusin-2 (MFN2) with residues 1-21 and 401-705 deleted (MFN2IM); Theoretical molecular mass 52.6 kDa; also called truncated human MFN2; wild-type MFN2IM; source: E. coli Rosetta (DE3), purified (Ni-NTA, His6-tag removed with PreScission protease, second Ni-NTA, gel filtration); not shown: His6, N-terminal, cleaved
stoichiometry N [7]: 2

B2: MFN2IM L248V (CMT2A-related mutant) (domain or fragment, human, UniProt O95140 22-757, looked up)
chain: T7 sequence (looked up) with L227V
notes: human mitofusin-2 (MFN2) with residues 1-21 and 401-705 deleted (MFN2IM), CMT2A-related point mutant; source: E. coli Rosetta (DE3), purified; not shown: His6, N-terminal, cleaved
binding result [7]: binds

B3: MFN2IM R94Q (CMT2A-related mutant) (domain or fragment, human, UniProt O95140 22-757, looked up)
chain: T7 sequence (looked up) with R73Q
notes: as for B2
binding result [7]: binds

B4: MFN2IM R364W (CMT2A-related mutant) (domain or fragment, human, UniProt O95140 22-757, looked up)
chain: T7 sequence (looked up) with R343W
notes: as for B2
binding result [7]: binds

B5: MFN2IM R364P (CMT2A-related mutant) (domain or fragment, human, UniProt O95140 22-757, looked up)
chain: T7 sequence (looked up) with R343P
notes: as for B2
binding result [7]: binds

B6: MFN2IM P251L (CMT2A-related mutant) (domain or fragment, human, UniProt O95140 22-757, looked up)
chain: T7 sequence (looked up) with P230L
notes: as for B2
binding result [7]: binds

binding result (MBP-fused MFN2IM): binds
B7: MFN2IM R94W (CMT2A-related mutant) (domain or fragment, human, UniProt O95140 22-757, looked up)
chain: T7 sequence (looked up) with R73W
notes: as for B2
